In the supplement of paper PMC11451515:

Tested on: P12-Ichikawa
Test: cell viability relative to DMSO control; higher = less cytotoxic
Conditions: 48 h
Method in brief: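 Viability, reported as a per-plate percentage of DMSO wells with cell-free wells as background, came from CellTiter-Glo One luminescence. Reading took place after 48 h at 37°C. Before that, NOMO1 or SEM (500 cells/well) or P12-Ichikawa (1000 cells/well) leukemia cells, adapted for at least four passages in each medium, were seeded in 1536-well plates (5 μl) and pin-dosed with library compounds in DMSO, 47 μM to 0.79 nM over 11 threefold points.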

[1] = HPLM + 10% dialyzed FBS, 0.000781 µM
[2] = HPLM + 10% dialyzed FBS, 0.00234 µM
[3] = HPLM + 10% dialyzed FBS, 0.00702 µM
[4] = HPLM + 10% dialyzed FBS, 0.0211 µM
[5] = HPLM + 10% dialyzed FBS, 0.0632 µM
[6] = HPLM + 10% dialyzed FBS, 0.19 µM
[7] = HPLM + 10% dialyzed FBS, 0.569 µM
[8] = HPLM + 10% dialyzed FBS, 1.71 µM
[9] = HPLM + 10% dialyzed FBS, 5.12 µM
[10] = HPLM + 10% dialyzed FBS, 15.4 µM
[11] = HPLM + 10% dialyzed FBS, 46.1 µM
[12] = RPMI 5 mM glucose + 10% FBS, 0.000781 µM
[13] = RPMI 5 mM glucose + 10% FBS, 0.00234 µM
[14] = RPMI 5 mM glucose + 10% FBS, 0.00702 µM
[15] = RPMI 5 mM glucose + 10% FBS, 0.0211 µM
[16] = RPMI 5 mM glucose + 10% FBS, 0.0632 µM
[17] = RPMI 5 mM glucose + 10% FBS, 0.19 µM
[18] = RPMI 5 mM glucose + 10% FBS, 0.569 µM
[19] = RPMI 5 mM glucose + 10% FBS, 1.71 µM
[20] = RPMI 5 mM glucose + 10% FBS, 5.12 µM
[21] = RPMI 5 mM glucose + 10% FBS, 15.4 µM
[22] = RPMI 5 mM glucose + 10% FBS, 46.1 µM
[23] = RPMI 5 mM glucose + 10% dialyzed FBS, 0.000781 µM
[24] = RPMI 5 mM glucose + 10% dialyzed FBS, 0.00234 µM
[25] = RPMI 5 mM glucose + 10% dialyzed FBS, 0.00702 µM
[26] = RPMI 5 mM glucose + 10% dialyzed FBS, 0.0211 µM
[27] = RPMI 5 mM glucose + 10% dialyzed FBS, 0.0632 µM
[28] = RPMI 5 mM glucose + 10% dialyzed FBS, 0.19 µM
[29] = RPMI 5 mM glucose + 10% dialyzed FBS, 0.569 µM
[30] = RPMI 5 mM glucose + 10% dialyzed FBS, 1.71 µM
[31] = RPMI 5 mM glucose + 10% dialyzed FBS, 5.12 µM
[32] = RPMI 5 mM glucose + 10% dialyzed FBS, 15.4 µM
[33] = RPMI 5 mM glucose + 10% dialyzed FBS, 46.1 µM

Row | SMILES | cell viability [1] | cell viability [2] | cell viability [3] | cell viability [4] | cell viability [5] | cell viability [6] | cell viability [7] | cell viability [8] | cell viability [9] | cell viability [10] | cell viability [11] | cell viability [12] | cell viability [13] | cell viability [14] | cell viability [15] | cell viability [16] | cell viability [17] | cell viability [18] | cell viability [19] | cell viability [20] | cell viability [21] | cell viability [22] | cell viability [23] | cell viability [24] | cell viability [25] | cell viability [26] | cell viability [27] | cell viability [28] | cell viability [29] | cell viability [30] | cell viability [31] | cell viability [32] | cell viability [33]
1 | Cc1nc2cc(C(=O)N3CCC4(CC3)CC(=O)c3c(cnn3C(C)C)C4)ccc2[nH]1 | 103% | 121% | 107% | 120% | 116% | 119% | 122% | 110% | 93.3% | 112% | 18% | – | – | – | – | – | – | – | – | – | – | – | – | – | – | – | – | – | – | – | – | – | –
2 | CC1=C(/C=C/C(C)=C/C=C/C(C)=C\C(=O)O)C(C)(C)CCC1 | 88.5% | 91.7% | 90.2% | 93.4% | 95.7% | 92.6% | 96.4% | 92.2% | 97.3% | 95.5% | 91.3% | 76.1% | 88.5% | 82.7% | 91% | 85.5% | 89.7% | 85.4% | 79.6% | 77.4% | 84.5% | 82.1% | 80.4% | 89.9% | 85% | 90% | 86.7% | 86.7% | 91.9% | 90.5% | 83.7% | 84.5% | 85.4%
3 | Cc1cc(OCCC[S+](C)(=O)[O-])cc(C)c1-c1cccc(COc2ccc3c(c2)OC[C@H]3CC(=O)O)c1 | 100% | 104% | 98.1% | 108% | 97% | 94.8% | 97.4% | 93.6% | 91.6% | 94.2% | 68.6% | 105% | 106% | 110% | 103% | 101% | 100% | 98.1% | 84.2% | 84.9% | 86.8% | 49.3% | 93.1% | 96.2% | 102% | 98.5% | 96.1% | 97.7% | 91.1% | 84.3% | 84.7% | 82.4% | 46.1%
4 | CC(=O)N[C@@H]1[C@@H](NC(N)=N)\C=C(/O[C@H]1[C@H](O)[C@H](O)CO)C(O)=O | 92.9% | 103% | 106% | 106% | 116% | 116% | 117% | 112% | 112% | 114% | 113% | 93.9% | 108% | 109% | 113% | 123% | 112% | 105% | 113% | 117% | 70.2% | 118% | 88.9% | 107% | 109% | 109% | 113% | 107% | 108% | 112% | 115% | 112% | 100%
5 | O=S(=O)([O-])CCS.[Na+] | 109% | 122% | 125% | 119% | 127% | 126% | 126% | 129% | 30.8% | 18.1% | 15.3% | 100% | 114% | 116% | 118% | 132% | 121% | 136% | 134% | 37% | 18.5% | 16.7% | 114% | 121% | 121% | 120% | 130% | 131% | 135% | 139% | 80.8% | 43.2% | 20.1%
6 | Cc1cn([C@H]2C=C[C@@H](CO)O2)c(=O)[nH]c1=O | 104% | 114% | 108% | 108% | 112% | 103% | 119% | 103% | 115% | 116% | 108% | 100% | 111% | 107% | 108% | 105% | 104% | 112% | 115% | 108% | 110% | 98% | 99.4% | 101% | 110% | 105% | 103% | 101% | 112% | 108% | 99.2% | 107% | 92.8%
7 | COc1cc(CCc2cc(NC(=O)c3ccc(N4C[C@@H](C)N[C@@H](C)C4)cc3)n[nH]2)cc(OC)c1 | 124% | 136% | 118% | 130% | 123% | 121% | 120% | 119% | 109% | 107% | 90% | – | – | – | – | – | – | – | – | – | – | – | – | – | – | – | – | – | – | – | – | – | –
8 | O=C(Nc1nnc(-c2ccco2)o1)c1cc(-c2ccccc2)nc2ccccc12 | 113% | 99.3% | 103% | 116% | 113% | 110% | 116% | 109% | 44.4% | 3.09% | 3.16% | 104% | 105% | 115% | 110% | 116% | 113% | 118% | 119% | 117% | 97.8% | 6.52% | 95.7% | 99.8% | 99.2% | 94.2% | 108% | 105% | 100% | 105% | 102% | 93.2% | 7.67%
9 | CC[C@@H]1[C@@H](C)O[C@@](O)([C@@H](C)[C@H](O)[C@H](C)[C@H]2OC(=O)/C=C/C=C/[C@H](C)[C@@H]([C@@H](C)[C@@H](O)[C@H](C)[C@@]3(O)C[C@@H](O[C@H]4C[C@H](O)[C@H](O)[C@H](C)O4)[C@H](CC)[C@@H](C)O3)OC(=O)/C=C/C=C/[C@@H]2C)C[C@H]1O[C@H]1C[C@H](O)[C@H](O)[C@H](C)O1 | – | – | – | – | – | – | – | – | – | – | – | – | – | – | – | – | – | – | – | – | – | – | 117% | 121% | 115% | 131% | 126% | 127% | 142% | 139% | 7.66% | 60.8% | 2.82%
